{
  "source": "paper PMC4397963",
  "about": "“Phospho-Tyrosine(s) vs. Phosphatidylinositol Binding in Shc Mediated Integrin Signaling” (American journal of molecular biology, 2015)",
  "key": {"apo Shc PTB domain": {"tested_on": "apo Shc PTB domain", "experiment": "15N-HSQC NMR titration of apo Shc PTB domain", "format": "binding", "details": "15N-labelled apo PTB 100 – 200 μM, 50 mM Tris pH 7.5, 100 mM NaCl, 35°C; lipid to protein up to 15 to 1 (Ins(1,4,5)P3), 5 to 1 (PtdIns(4,5)P2)", "protocol": "^15N-labelled recombinant proteins were overexpressed in M9 medium supplemented with ^15NH4Cl as the sole nitrogen source. The same purification procedures as described above were followed. NMR samples of 100 – 200 μM were prepared in a buffer of 50 mM Tris, pH 7.5, 100 mM NaCl, 5 mM β-mercaptoethanol, 7% D2O, 1 mM 4,4-dimethyl-4-silapentane-1-sulfonic acid as the internal standard. ^15N-HSQC titration experiments were performed on a Varian/Agilent Inova 600 MHz spectrometer equipped with inverse-triple resonance cryo-probe at 35°C. All spectra were processed with NMRPipe and analyzed in CCPNmr Analysis software suite.\nTo find out the molecular details of these weak Shc-PtdIns interactions, we next employed NMR and performed ^15N-HSQC chemical shifts mapping experiments which are especially useful to define weak binding. […] Chemical shift perturbations, associated with the probes binding, were monitored. Overall, the observed shifts in Shc PTB resonance frequencies were small. However, they were concentration dependent, reproducible, and similar among the two PtdIns tested. […] The close-ups of 15N-HSQC spectra of PTB in the presence of PtdIns(4,5)P2, exemplifying the most shifted resonances, are shown in Figure 2. […] The first one, represented by the residues Q^148, S^149 and A^168, overlaps with the classical phosphotyrosine binding pocket of the protein-peptide binary complex. However, the canonical PTB fold cannot be formed without the stabilizing hydrophobic residue (pY-5) of the target peptide. Thus, in apo PTB domain Ins(1,4,5)P3 could only establish intermediate dynamic contacts with the amine functional groups of R^67 or Q^148 side chains. The second binding site, including the residues L^63, Q^76 and S^107, is formed at the interface of the second helix, the loop connecting the first beta strand with the second helix and the beginning of the second beta strand. This second PtdIns binding site is distinct from the second novel phosphotyrosine binding site we previously described for Shc PTB-bi-β3 complex, although it includes several overlapping residues. […]"}, "full length Shc": {"target": "full length Shc", "details": "ref [21], cited from earlier work", "text": "Since their discovery about two decades ago, PTB domains have been identified and structurally characterized within numerous multi-domain proteins. The ways they interact with their targets are strikingly versatile. The phosphorylated tyrosine is not always required for the high affinity interactions, and, in some cases, the binding motif might not even contain the tyrosine residue at all. PTB domains in general are also famous for the significant variance in their ligand binding affinities, ranging from 0.1 to 100 μM [17]. […] We were greatly surprised that we were not able to reproduce the data reported by George and co-workers, who have reported a tight dissociation constant (Kd of 0.7 μM) for the full length Shc. […] The conditions we tested include: i) Shc PTB domain at 12°C and 25°C in several different buffers (including exactly th ..."}, "[1]": {"tested_on": "Shc SH2 domain (380 – 473)", "experiment": "ITC (and other) binding to Shc SH2 domain", "details": "12°C and 25°C", "protocol": "(§1) The Shc PTB domain (17 – 207) containing the pET15b vector was transformed into a Rosetta (DE3) cell line to pursue optimal expression levels. SH2 domain (380 – 473) was cloned into NdeI and XhoI sites in pET21b vector and then transformed into a BL21 (DE3) cell line. The vector of pET28a-full length Shc (1 – 473), generously provided by Dr. Ladbury (University of Texas MD Anderson Cancer Center, TX), was expressed in a BL21 (DE3) cell line as well. Typically, 10 ml overnight culture was used to inoculate 1 liter LB broth. Cells were grown at 37°C until OD600 reached 0.6. At this point the culture was cooled to room temperature and then the overnight overexpression was induced by 1 mM isopropyl-β-D-thiogalactopyranoside. Harvested cells were kept at −20°C for future purification or resuspended in lysis buffer supplemented with protease inhibitors. Cells were further lysed by french press and the cell debris was removed by centrifugation at 18,000 rpm at 4°C. […] The overexpression of the target protein and the purified protein were confirmed by SDS-PAGE and the bands of the expected mass were observed. […]\n(§2) Calorimetric measurements of a full length Shc, PTB domain, and SH2 domain to β3 phosphopeptides or PtdIns were performed on a low volume Nano ITC (TA Instruments). […] The concentration of protein samples was determined by UV measurements. […]"}, "[2]": {"target": "T1, Shc PTB domain (17 – 207) (Homo sapiens, UniProt P29353)", "T1 construct": "The Shc PTB domain (17 – 207) containing the pET15b vector was transformed into a Rosetta (DE3) cell line; His-tag (N); made in house; host or cells: E. coli Rosetta (DE3), pET15b", "T1 sequence (P29353 17-207 isoform P29353-2)": "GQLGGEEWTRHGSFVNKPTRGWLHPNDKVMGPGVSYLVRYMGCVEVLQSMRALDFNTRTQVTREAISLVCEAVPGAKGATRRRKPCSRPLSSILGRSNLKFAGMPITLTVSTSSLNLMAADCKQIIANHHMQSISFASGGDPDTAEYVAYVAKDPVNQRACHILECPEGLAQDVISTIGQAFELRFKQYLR", "experiment": "ITC binding to Shc PTB domain", "details": "Shc PTB domain, 12°C and 25°C, several buffers incl. 50 mM Tris pH 8.0, 200 mM NaCl, 1 mM Dithiothreitol", "protocol": "The Shc PTB domain (17 – 207) containing the pET15b vector was transformed into a Rosetta (DE3) cell line to pursue optimal expression levels. SH2 domain (380 – 473) was cloned into NdeI and XhoI sites in pET21b vector and then transformed into a BL21 (DE3) cell line. The vector of pET28a-full length Shc (1 – 473), generously provided by Dr. Ladbury (University of Texas MD Anderson Cancer Center, TX), was expressed in a BL21 (DE3) cell line as well. Typically, 10 ml overnight culture was used to inoculate 1 liter LB broth. Cells were grown at 37°C until OD600 reached 0.6. At this point the culture was cooled to room temperature and then the overnight overexpression was induced by 1 mM isopropyl-β-D-thiogalactopyranoside. Harvested cells were kept at −20°C for future purification or resuspended in lysis buffer supplemented with protease inhibitors. Cells were further lysed by french press and the cell debris was removed by centrifugation at 18,000 rpm at 4°C. […] The overexpression of the target protein and the purified protein were confirmed by SDS-PAGE and the bands of the expected mass were observed. The determination of protein concentration by UV measurement was consistent with Bradford assay.\nCalorimetric measurements of a full length Shc, PTB domain, and SH2 domain to β3 phosphopeptides or PtdIns were performed on a low volume Nano ITC (TA Instruments). All experiments were carried out in a buffer of 50 mM Tris, pH 7.5, 100 mM NaCl, 5 mM β-mercaptoethanol (unless described otherwise) at 12°C or 25°C with a stirring speed of 250 rpm to minimize the precipitation of the protein. 300 second time intervals were set between injections. The concentration of protein samples was determined by UV measurements. The titrants (β3 phosphopeptides or PtdIns) were prepared in the same buffer by the dilution of higher concentration stocks. The concentrations of the protein ranged from 30 μM to 150 μM. The concentration of protein was examined after each ITC experiment by UV to ensure the stability of proteins under the test condition. The analysis of the data was done with Nano Analyze Software (TA Instruments) suite using an “independent” model."}, "[3]": {"target": "T2, full length Shc (1 – 473) (Homo sapiens, UniProt P29353)", "T2 construct": "The vector of pET28a-full length Shc (1 – 473), generously provided by Dr. Ladbury; His-tag (N); made in house; host or cells: E. coli BL21 (DE3), pET28a (vector a gift from Dr. Ladbury)", "T2 sequence (P29353 1-473 isoform P29353-2)": "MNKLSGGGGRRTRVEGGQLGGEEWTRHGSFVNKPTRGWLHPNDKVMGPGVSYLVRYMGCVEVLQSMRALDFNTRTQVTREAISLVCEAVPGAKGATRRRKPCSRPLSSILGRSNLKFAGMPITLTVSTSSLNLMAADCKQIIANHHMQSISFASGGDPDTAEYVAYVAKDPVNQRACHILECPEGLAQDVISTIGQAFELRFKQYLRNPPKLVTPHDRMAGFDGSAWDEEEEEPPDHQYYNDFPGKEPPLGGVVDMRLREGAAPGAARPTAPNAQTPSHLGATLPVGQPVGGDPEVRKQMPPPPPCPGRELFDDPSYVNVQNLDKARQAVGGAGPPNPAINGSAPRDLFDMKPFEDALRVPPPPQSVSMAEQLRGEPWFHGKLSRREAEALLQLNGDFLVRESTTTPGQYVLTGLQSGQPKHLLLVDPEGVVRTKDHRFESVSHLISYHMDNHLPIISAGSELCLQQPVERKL", "experiment": "ITC binding to full length Shc", "details": "full length Shc, 12°C and 25°C", "protocol": "as §1, §2"}},
  "note": "Entries after “also recorded” stand apart in the source; their conditions may differ.",
  "data": [
    {"smiles": "O=P(O)(O)O[C@@H]1[C@H](O)[C@H](O)[C@@H](OP(=O)(O)O)[C@H](OP(=O)(O)O)[C@H]1O", "note": "[Ins(1,4,5)P3, D-myo-Inositol-1,4,5-triphosphate]", "values": [
      {"measurement": "15N-HSQC chemical shift perturbations", "setting": "apo Shc PTB domain", "value": "minimal chemical shift perturbations for a handful of residues; also recorded: less pronounced compared to PtdIns(4,5)P2"},
      {"measurement": "Kd", "setting": "full length Shc; 50 mM Tris, pH 8.0, 200 mM NaCl, 1 mM Dithiothreitol", "value": 0.7, "unit": "µM"},
      {"measurement": "relative binding strength", "setting": "full length Shc", "value": "much tighter than the binding of the isolated Shc PTB domain alone to PtdIns(4,5)P2"},
      {"measurement": "binding by ITC", "setting": "[1]", "value": "No binding was found; also recorded: does not show to bind"},
      {"measurement": "binding by ITC", "setting": "[2]", "value": "No binding was found; also recorded: minimal Shc PTB binding; also recorded: does not show to bind"},
      {"measurement": "binding by ITC", "setting": "[3]", "value": "No binding was found; also recorded: does not"}
    ]}
  ]
}
